Laboratory results as given in PubChem BioAssay (NCI).
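Method: 48-hour compound exposure of cells in 96-well plates, five concentrations, linear interpolation of endpoints. The concentration for full growth arrest is given as TGI.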

What was measured:
Assay in all cases: DTP human tumour cell line panel, 48 h
[1] = tested on: CCRF-CEM leukemia
[2] = tested on: IGROV1 ovarian
[3] = tested on: K-562 leukemia
[4] = tested on: KM12 colon
[5] = tested on: MDA-MB-435
[6] = tested on: NCI-H522 lung
[7] = tested on: OVCAR-8 ovarian
[8] = tested on: PC-3 prostate
[9] = tested on: SW-620 colon
[10] = tested on: TK-10 renal

SMILES | TGI [1] | TGI [2] | TGI [3] | TGI [4] | TGI [5] | TGI [6] | TGI [7] | TGI [8] | TGI [9] | TGI [10]
CC(C)=CCC[C@@H](C)C1=CC(=O)C(C)=C(O)C1=O | 3.9 µM | 23.2 µM | 5.79 µM | 16.1 µM | 16.9 µM | 2.78 µM | 4.83 µM | 18.2 µM | 33.5 µM | 15.7 µM
O=C1O[C@H]2C3C4CCC(C4[C@@H]2I)[C@H]13 (stereo not given in full) | > 100 µM | > 100 µM | > 100 µM | > 100 µM | > 100 µM | > 100 µM | > 100 µM | > 100 µM | > 100 µM | > 100 µM
COc1cc(/C=C/C(=N\NC(=S)NN)c2sc(NNC(C)=O)nc2C)ccc1O | > 100 µM | > 100 µM | > 100 µM | > 100 µM | > 100 µM | > 100 µM | > 100 µM | > 100 µM | > 100 µM | > 100 µM
COc1cc(O)cc(O)c1C(=O)CC(Cl)(Cl)Cl | > 100 µM | > 100 µM | > 100 µM | > 100 µM | > 100 µM | > 100 µM | > 100 µM | > 100 µM | > 100 µM | > 100 µM
